# Counter-ions that a name gives are not always drawn.
# Test system: not given
# Assay: not given
# Conditions: not given
row,melting point,Structure (SMILES)
1,209 to 211 °C,"CC1(C)C=C(CSc2nc3c(C(N)=O)cccc3[nH]2)C(C)(C)N1 (as salt: HCl) [Compound 27, 2-(2,2,5,5-tetramethyl-2,5-dihydro-1H-pyrrol-3-yl-methyl-sulphanyl)-1H-benzimidazole 4-carboxylic acid amide]"
2,245 to 246 °C,"CC1(C)C=C(CSc2nc3c(C(N)=O)cccc3[nH]2)CC(C)(C)N1 [Compound 29, 2-(2,2,6,6-tetramethyl-1,2,3,6-tetrahydro-pyridin-4-yl-methylsulphanyl)-1H-benzimidazole 4-carboxylic acid amide]"

# Target: T1, Poly-ADP-ribose polymerase (PARP enzyme) (Rattus norvegicus, UniProt P27008)
# T1 construct: Poly-ADP-ribose polymerase was isolated from rat liver; from tissue; host or cells: rat liver
# Assay: Inhibitory effect of benzimidazole derivatives on PARP enzyme in vitro ([3H]NAD+ incorporation)
# Assay type: biochemical
# Conditions: not given
# Description: Assay to test inhibitory effects of benzimidazole derivatives on PARP enzyme in vitro.
# The potential inhibitory effect of benzimidazole derivatives were tested in this assay system. The PARP activity was determined in 130 μl reaction mixture contained 100 mM Tris-HCl buffer, pH 8.0, 10 mM MgCl2, 10% glycerol, 1.5 mM DTT, 1 mM [Adenine-2,8-^3H] NAD^+ (4.500 cpm/nmol), 10 μg activated DNA and 10 μg histones. The incubation time was 15 minutes, and the reaction was stopped by addition of trichloro-acetic acid (8%). After addition of 0.5 mg albumine, precipitation was allowed to proceed for at least 20 minutes on ice, and the insoluble material was collected on a glass filter washed with 5% perchloric acid. The protein-bound radio-activity was determined by a LS-200 Beckman scintillation counter.
# T1 sequence (P27008 whole entry): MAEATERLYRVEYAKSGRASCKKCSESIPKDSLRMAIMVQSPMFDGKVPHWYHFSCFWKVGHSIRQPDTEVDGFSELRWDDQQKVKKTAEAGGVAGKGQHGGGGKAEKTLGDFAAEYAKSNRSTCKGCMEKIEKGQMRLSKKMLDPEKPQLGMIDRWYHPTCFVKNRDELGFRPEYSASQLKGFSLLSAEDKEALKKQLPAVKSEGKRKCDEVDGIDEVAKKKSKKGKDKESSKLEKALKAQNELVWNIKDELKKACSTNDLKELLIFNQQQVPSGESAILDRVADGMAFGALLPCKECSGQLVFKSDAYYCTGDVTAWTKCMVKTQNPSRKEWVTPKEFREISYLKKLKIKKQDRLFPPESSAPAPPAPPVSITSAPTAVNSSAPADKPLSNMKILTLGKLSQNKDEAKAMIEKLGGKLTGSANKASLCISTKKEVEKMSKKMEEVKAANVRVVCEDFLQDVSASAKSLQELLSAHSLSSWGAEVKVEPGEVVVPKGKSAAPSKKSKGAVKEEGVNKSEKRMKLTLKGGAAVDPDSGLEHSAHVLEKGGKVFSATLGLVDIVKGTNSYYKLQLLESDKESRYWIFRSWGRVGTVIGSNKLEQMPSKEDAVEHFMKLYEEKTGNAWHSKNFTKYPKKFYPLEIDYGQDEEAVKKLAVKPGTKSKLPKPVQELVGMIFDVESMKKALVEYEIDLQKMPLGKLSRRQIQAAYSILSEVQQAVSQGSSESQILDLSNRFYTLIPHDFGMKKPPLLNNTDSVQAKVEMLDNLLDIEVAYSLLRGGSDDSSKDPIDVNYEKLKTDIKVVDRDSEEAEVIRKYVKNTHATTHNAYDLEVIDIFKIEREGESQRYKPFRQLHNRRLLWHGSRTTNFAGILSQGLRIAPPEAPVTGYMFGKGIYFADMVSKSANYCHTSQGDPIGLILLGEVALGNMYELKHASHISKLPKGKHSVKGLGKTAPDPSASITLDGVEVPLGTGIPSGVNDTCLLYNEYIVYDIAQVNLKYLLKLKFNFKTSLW
row,Structure (SMILES),IC50
1,"CC1(C)C=C(c2nc3c(C(N)=O)cccc3[nH]2)C(C)(C)N1[O] [Compound 1, 2-(1-oxyl-2,2,5,5-tetramethyl-2,5-dihydro-1H-pyrrol-3-yl)-1H-benzimidazole 4-carboxylic acid amide radical]",721 nM
2,"CC1(C)C(Br)=C(c2nc3c(C(N)=O)cccc3[nH]2)C(C)(C)N1[O] [Compound 5, 2-(4-bromo-1-oxyl-2,2,5,5-tetramethyl-2,5-dihydro-1H-pyrrol-3-yl)-1H-benzimidazole 4-carboxylic acid amide radical]",201 nM
3,"CC1(C)C(c2ccccc2)=C(c2nc3c(C(N)=O)cccc3[nH]2)C(C)(C)N1[O] [Compound 7, 2-(1-oxyl-4-phenyl-2,2,5,5-tetramethyl-2,5-dihydro-1H-pyrrol-3-yl)-1H-benzimidazole 4-carboxylic acid amide radical]",1500 nM
4,"CC1(C)C(c2cccc(C(F)(F)F)c2)=C(c2nc3c(C(N)=O)cccc3[nH]2)C(C)(C)N1[O] [Compound 9, 2-[1-oxyl-2,2,5,5-tetramethyl-4-(3-trifluoromethyl-phenyl)-2,5-dihydro-1H-pyrrol-3-yl]-1H-benzimidazole 4-carboxylic acid amide radical]",149 nM
5,"CC1(C)NC(C)(C)C(c2nc3c(C(N)=O)cccc3[nH]2)=C1c1cccc(C(F)(F)F)c1 [Compound 10, 2-[2,2,5,5-tetramethyl-4-(3-trifluoromethyl-phenyl)-2,5-dihydro-1H-pyrrol-3-yl]-1H-benzimidazole 4-carboxylic acid amide]",133 nM
6,"CC1(C)C=C(c2ccc(-c3nc4c(C(N)=O)cccc4[nH]3)cc2)C(C)(C)N1[O] [Compound 11, 2-[4-(1-oxyl-2,2,5,5-tetramethyl-2,5-dihydro-1H-pyrrol-3-yl)-phenyl]-1H-benzimidazole 4-carboxylic acid amide radical]",78 nM
7,"CN1C(C)(C)C=C(c2nc3c(C(N)=O)cccc3[nH]2)C1(C)C [Compound 13, 2-(1,2,2,5,5-pentamethyl-2,5-dihydro-1H-pyrrol-3-yl)-1H-benzimidazole 4-carboxylic acid amide]",42 nM
8,CC1(C)C(c2nc3c(C(N)=O)cccc3[nH]2)=C(c2cccc3c2oc2ccccc23)C(C)(C)N1[O] [Compound 16],1800 nM
9,"CC1(C)C=C(c2nc3c(C(N)=O)cccc3[nH]2)CC(C)(C)N1 [Compound 19, 2-(2,2,6,6-tetramethyl-1,2,3,6-tetrahydro-pyridin-4-yl)-1H-benzimidazole 4-carboxylic acid amide]",14 nM
10,"CC1(C)C=C(COc2ccc(-c3nc4c(C(N)=O)cccc4[nH]3)cc2)C(C)(C)N1[O] [Compound 20, 2-[4-(1-oxyl-2,2,5,5-tetramethyl-2,5-dihydro-1H-pyrrol-3-yl-methoxy)-phenyl]-1H-benzimidazole 4-carboxylic acid amide radical]",564 nM
11,"COc1cc(-c2nc3c(C(N)=O)cccc3[nH]2)ccc1OCC1=CC(C)(C)N([O])C1(C)C [Compound 22, 2-[3-methoxy-4-(1-oxyl-2,2,5,5-tetramethyl-2,5-dihydro-1H-pyrrol-3-yl-methoxy)-phenyl]-1H-benzimidazole 4-carboxylic acid amide radical]",472 nM
12,"COc1cc(-c2nc3c(C(N)=O)cccc3[nH]2)ccc1OCC1=CC(C)(C)NC1(C)C [Compound 23, 2-[3-methoxy-4-(2,2,5,5-tetramethyl-2,5-dihydro-1H-pyrrol-3-yl-methoxy)-phenyl]-1H-benzimidazole 4-carboxylic acid amide]",432 nM
13,"CC1(C)c2cc(-c3nc4c(C(N)=O)cccc4[nH]3)sc2C(C)(C)N1[O] [Compound 24, 2-(5-oxyl-4,4,6,6-tetramethyl-4,6-dihydro-5H-thieno[2,3-c]pyrrol-2-yl)-1H-benzimidazole 4-carboxylic acid amide radical]",3400 nM
14,"CC1(C)NC(C)(C)c2sc(-c3nc4c(C(N)=O)cccc4[nH]3)cc21 [Compound 25, 2-(4,4,6,6-tetramethyl-4,6-dihydro-5H-thieno[2,3-c]pyrrol-2-yl)-1H-benzimidazole 4-carboxylic acid amide]",354 nM

# Same assay, conditions: PARP isolated from rat liver, 1 mM [3H]NAD+, 15 min incubation; read-out: PARP IC50
row,IC50,Structure (SMILES)
1,345 nM,"CC1(C)C=C(c2nc3c(C(N)=O)cccc3[nH]2)C(C)(C)N1 [Compound 2, 2-(2,2,5,5-tetramethyl-2,5-dihydro-1H-pyrrol-3-yl)-1H-benzimidazole 4-carboxylic acid amide]"
2,216 nM,"COC(=O)C1C(c2nc3c(C(N)=O)cccc3[nH]2)C(C)(C)NC1(C)C (centres unmarked) [Compound 4, 4-(4-carbamoyl-1H-benzimidazol-2-yl)-2,2,5,5-tetramethyl-pyrrolidine-3-carboxylic acid methyl ester]"
3,137 nM,"CC1(C)NC(C)(C)C(c2nc3c(C(N)=O)cccc3[nH]2)=C1Br [Compound 6, 2-(4-bromo-2,2,5,5-tetramethyl-2,5-dihydro-1H-pyrrol-3-yl)-1H-benzimidazole 4-carboxylic acid amide]"
4,310 nM,"CC1(C)NC(C)(C)C(c2nc3c(C(N)=O)cccc3[nH]2)=C1c1ccccc1 [Compound 8, 2-(4-phenyl-2,2,5,5-tetramethyl-2,5-dihydro-1H-pyrrol-3-yl)-1H-benzimidazole 4-carboxylic acid amide]"
5,98 nM,"CC1(C)C=C(c2ccc(-c3nc4c(C(N)=O)cccc4[nH]3)cc2)C(C)(C)N1 [Compound 12, 2-[4-(2,2,5,5-tetramethyl-2,5-dihydro-1H-pyrrol-3-yl)-phenyl]-1H-benzimidazole 4-carboxylic acid amide]"
6,49 nM,"CC(=O)N1C(C)(C)C=C(c2nc3c(C(N)=O)cccc3[nH]2)C1(C)C [Compound 14, 2-(1-acetyl-2,2,5,5-tetramethyl-2,5-dihydro-1H-pyrrol-3-yl)-1H-benzimidazole 4-carboxylic acid amide]"
7,61 nM,"CON1C(C)(C)C=C(c2nc3c(C(N)=O)cccc3[nH]2)C1(C)C [Compound 15, 2-(1-methoxy-2,2,5,5-tetramethyl-2,5-dihydro-1H-pyrrol-3-yl)-1H-benzimidazole 4-carboxylic acid amide]"
8,8200 nM,CC1(C)NC(C)(C)C(c2cccc3c2oc2ccccc23)=C1c1nc2c(C(N)=O)cccc2[nH]1 [Compound 17]
9,572 nM,"CC1(C)C=C(COc2ccc(-c3nc4c(C(N)=O)cccc4[nH]3)cc2)C(C)(C)N1 [Compound 21, 2-[4-(2,2,5,5-tetramethyl-2,5-dihydro-1H-pyrrol-3-yl-methoxy)-phenyl]-1H-benzimidazole 4-carboxylic acid amide]"

row,Structure (SMILES),IC50
1,"CC1(C)C=C(c2nc3c(C(N)=O)cccc3[nH]2)CC(C)(C)N1O [Compound 18, (1-hydroxy-2,2,6,6-tetramethyl-1,2,3,6-tetrahydro-pyridin-4-yl)-1H-benzimidazole 4-carboxylic acid amide]",26 nM

# Source: US20070072912A1, “Alicyclic-amine-substituted 4-carboxamido-benzimidazoles as parp-inhibitors and antioxidants” (Cedars-Sinai Medical Center, priority 2003, published 2007)
